From ChEMBL document CHEMBL5543120, “Discovery of Novel 5,6-Dihydro-4H-pyrido[2,3,4-de]quinazoline Irreversible Inhibitors Targeting Both Wild-Type and A775_G776insYVMA Mutated HER2 Kinases” (J Med Chem, 2024) come the findings set out here.

In general, AUC(0-t) refers to exposure summed from dosing to a finite time, without extrapolation to infinity. Read a low AUC(0-t) as low exposure. The term bioavailability denotes dose-corrected exposure relative to a reference, in per cent. The low end stands for poor availability, the high end for good availability. The Vd is the apparent volume that relates the amount in the body to the concentration in plasma or blood. Read a low Vd as confinement near the circulation. One may read the clearance as a measure of how efficiently the substance is removed, as volume per time. The half-life is the time needed for the level to fall by half in the phase considered. A lower half-life goes with rapid decline. The Tmax is the time from dosing to the highest level. For orientation: Cmax means the highest concentration seen after dosing.

Data set [1] can be described thus: in vivo. To be noted: rat, po, 10 mg/kg.
A short description of data set [2]: in vivo. Particulars: rat, po, 10 mg/kg. This is another data set of the same source.
The nature of data set [3]: in vivo. To be noted: rat, iv, 3 mg/kg.
Data set [4] is described as follows: in vivo. Particulars: rat, iv, 3 mg/kg. The source holds these as a separate data set.
Data set [5] in a line: in vivo. To be noted: rat, iv, 3 mg/kg. This is another data set of the same source.
The nature of data set [6]: in vivo. To be noted: rat, iv, 3 mg/kg. The source holds these as a separate data set.
Data set [7] can be described thus: in vivo. To be noted: rat, po, 10 mg/kg. This is another data set of the same source.
Data set [8] is described as follows: in vivo. Particulars: rat, po, 10 mg/kg. The source holds these as a separate data set.
Data set [9] can be described thus: in vivo. To be noted: rat, po, 10 mg/kg. The source holds these as a separate data set.

For the compound `CN1CCC[C@@H]1/C=C/C(=O)Nc1ccc2ncnc3c2c1CCN3c1ccc(OCc2ccccn2)c(Cl)c1`, the area under the curve AUC(0-t) amounted to 157 ng·h/mL in “in vivo [1]” and 667 ng·h/mL in the data set “in vivo [3]”. In the data set “in vivo [2]”, this compound showed a bioavailability of 7.43%. Moreover, the Vd in “in vivo [4]” was 17.8 L/kg. For the same compound, in “in vivo [5]”, the clearance turned out to be 74.6 mL/min/kg. The figures for the half-life in the data set “in vivo [6]” and in the data set “in vivo [7]” were 4.88 h and 6.46 h, respectively. Also, the time of peak concentration (Tmax) in the data set “in vivo [8]” is 0.5 h. In “in vivo [9]”, this compound displayed a Cmax of 23.8 ng/mL.

As to `CN(C)C/C=C/C(=O)Nc1ccc2ncnc(Nc3ccc(OCc4ccccn4)c(Cl)c3)c2c1-c1ccccc1`, the AUC(0-t) in “in vivo [1]” worked out at 1300 ng·h/mL; in the data set “in vivo [3]”, 1290 ng·h/mL. Moreover, the bioavailability in the data set “in vivo [2]” came to 30.4%. Besides, the distribution volume (Vd) in “in vivo [4]” is 8.1 L/kg. The same compound returned a clearance in “in vivo [5]” of 38.4 mL/min/kg. Further, the half-life in “in vivo [6]” was 3.81 h; in the data set “in vivo [7]”, 4.1 h. In addition, the Tmax in the data set “in vivo [8]” was found to be 3.67 h. This compound also displayed a Cmax in “in vivo [9]” of 124 ng/mL.

For `CCOc1cc2ncc(C#N)c(Nc3ccc(OCc4ccccn4)c(Cl)c3)c2cc1NC(=O)/C=C/CN(C)C` [NERATINIB], in “in vivo [2]”, the bioavailability was 18.2%. The compound also yielded a Vd in the data set “in vivo [4]” of 5.01 L/kg. Besides, in the data set “in vivo [5]”, the clearance was determined as 20.8 mL/min/kg.
